# Data reported in PMC2788921 (Biochemistry, 2009).
# How the values were obtained:
# benzaldehyde lyase (BAL) = benzaldehyde lyase (BAL) (Pseudomonas fluorescens, UniProt P51853); experiment: CD titration of purified BAL; type: binding
# [1] = target: benzoylformate decarboxylase (BFDC) (Pseudomonas putida, UniProt P20906); experiment: stopped-flow PDA transient kinetics; type: binding
# benzoylformate decarboxylase (BFDC), sequence (P20906 whole entry): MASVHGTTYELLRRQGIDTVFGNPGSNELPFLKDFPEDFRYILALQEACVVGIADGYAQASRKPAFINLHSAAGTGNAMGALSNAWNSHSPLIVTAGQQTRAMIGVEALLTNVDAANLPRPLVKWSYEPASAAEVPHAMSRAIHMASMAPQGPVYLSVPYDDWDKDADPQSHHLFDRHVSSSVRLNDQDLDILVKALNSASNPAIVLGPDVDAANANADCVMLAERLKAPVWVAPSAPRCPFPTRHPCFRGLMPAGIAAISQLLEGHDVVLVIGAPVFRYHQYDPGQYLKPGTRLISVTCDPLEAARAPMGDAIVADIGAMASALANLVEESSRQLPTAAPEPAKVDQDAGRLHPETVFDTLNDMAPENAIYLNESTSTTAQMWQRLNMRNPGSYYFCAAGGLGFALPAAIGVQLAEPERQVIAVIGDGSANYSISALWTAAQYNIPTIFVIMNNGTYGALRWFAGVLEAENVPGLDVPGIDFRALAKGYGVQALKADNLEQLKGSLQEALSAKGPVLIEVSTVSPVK
# benzaldehyde lyase (BAL), sequence (P51853 whole entry): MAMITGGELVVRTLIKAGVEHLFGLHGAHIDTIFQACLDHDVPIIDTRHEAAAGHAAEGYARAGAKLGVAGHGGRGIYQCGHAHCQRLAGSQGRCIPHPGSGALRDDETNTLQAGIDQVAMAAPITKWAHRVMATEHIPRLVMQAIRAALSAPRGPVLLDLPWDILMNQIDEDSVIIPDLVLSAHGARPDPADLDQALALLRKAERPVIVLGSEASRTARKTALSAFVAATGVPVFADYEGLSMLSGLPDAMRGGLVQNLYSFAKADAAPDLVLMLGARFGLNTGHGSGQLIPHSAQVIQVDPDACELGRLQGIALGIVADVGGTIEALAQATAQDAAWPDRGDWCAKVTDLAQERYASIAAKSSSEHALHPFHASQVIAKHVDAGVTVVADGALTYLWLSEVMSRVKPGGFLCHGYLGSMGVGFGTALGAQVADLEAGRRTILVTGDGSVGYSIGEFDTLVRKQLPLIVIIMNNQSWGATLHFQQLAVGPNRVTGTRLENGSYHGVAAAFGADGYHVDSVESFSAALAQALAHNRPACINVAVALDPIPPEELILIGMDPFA
Kd [1] [µM],Structure (SMILES),Kd (benzaldehyde lyase (BAL)) [µM]
,"O=C/C=C/c1cccnc1 [PAA, (E)-3-(pyridin-3-yl)acrylaldehyde]",21.4 ± 1.98
340,"O=C(O)C(=O)/C=C/c1cccnc1 [3-PKB, (E)-2-oxo-4-(pyridin-3-yl)but-3-enoic acid]",
